According to ChEMBL document CHEMBL1150193, “Euglobal T1, a New Euglobal from Eucalyptus tereticornis” (J Nat Prod, 1991):
Activity calls are given as the source filed them. No cut-off for these calls is given here.

Test system: human gammaherpesvirus 4
Assay: Inhibition of Epstein-Barr virus early antigen activation

Activity	SMILES
inactive	CC(C)CC(=O)c1c(O)c(C=O)c(O)c2c1O[C@]1(C)C=C[C@@H](C(C)C)C[C@@H]1C2
inactive	CC(C)CC(=O)c1c(O)c(C=O)c2c(c1O)C[C@H]1C[C@H](C(C)C)C=C[C@@]1(C)O2
